From US20250195536A1, “BICYCLOOCTANE KRAS INHIBITORS” (Incyte Corporation, priority 2023, published 2025) come the findings set out here.

The target in one series is KRAS G12V (Homo sapiens, UniProt P01116, G12V). Briefly: GDP-GTP exchange assay (KRAS G12V).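 Also: one dagger IC50 up to 100 nM and two daggers above 100 nM up to 1 μM.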 In kind it is biochemical. The settings on record: bodipy-GDP/GppNHp exchange with SOS1; 3 h incubation after GppNHp-SOS1. In a few lines:
(§1)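 IC50 came from a four-parameter fit of fluorescence loss (485/520 nm) as SOS1 (150 nM) swapped bodipy-GDP for GppNHp (500 μM) on 2.5 nM KRAS, final concentrations. Compounds were pre-incubated 4 h at r.t. (pH 7.5 Hepes, 10 mM MgCl2); exchange ran 2 h (G12D) or 3 h (G12V).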

The target in the next series is KRAS G12D (Homo sapiens, UniProt P01116, G12D). Briefly: GDP-GTP exchange assay (KRAS G12D).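 Also: one dagger IC50 up to 100 nM and two daggers above 100 nM up to 1 μM.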 In kind it is biochemical. The conditions noted are these: bodipy-GDP/GppNHp exchange with SOS1; 4 h pre-incubation, 2 h reaction. The method in brief: as §1
Series [1] can be described thus: Caco2 assay (permeability, Papp A-B). Type of series: in vitro ADME. The conditions noted are these: human, Caco-2, absorptive direction (A-B), 50 μM test compound, 4% BSA in receiver. On the procedure:
Caco-2 cells are grown at 37° C. in an atmosphere of 5% CO2 in DMEM growth medium supplemented with 10% (v/v) fetal bovine serum, 1% (v/v) nonessential amino acids, penicillin (100 U/mL), and streptomycin (100 μg/mL). Confluent cell monolayers are subcultured every 7 days or 4 days for Caco-2 by treatment with 0.05% trypsin containing […]. Caco-2 cells are seeded in 96-well Transwell plates. The seeding density for Caco-2 cells is 14,000 cells/well. DMEM growth medium is replaced every other day after seeding. Cell monolayers are used for transport assays between 22 and 25 days for Caco-2 cells.
Cell culture medium is removed and replaced with HBSS. To measure the TEER, the HBSS is added into the donor compartment (apical side) and receiver compartment (basolateral side). The TEER is measured by using a REMS Autosampler to ensure the integrity of the cell monolayers. Caco-2 cell monolayers with TEER values 300 Ω·cm^2 are used for transport experiments. To determine the Papp in the absorptive direction (A-B), solution of test compound (50 μM) in HBSS is added to the donor compartment (apical side), while HBSS solution with 4% BSA is added to the receiver compartment (basolateral side). The apical volume was 0.075 mL, and the basolateral volume is 0.25 mL. The incubation period is 120 min. at 37° C. in an atmosphere of 5% CO2. At the end of the incubation period, samples from the donor and receiver sides are removed and an equal volume of MeCN is added for protein precipitation. The supernatants are collected after centrifugation (3000 rpm, Allegra X-14R Centrifuge from Beckman Coulter, Indianapolis, IN) for LCMS analysis. The permeability value is determined according to the equation:
Papp(cm/s)=(F*VD)/(SA*MD),
where the flux rate (F, mass/time) is calc. from the slope of cumulative amounts of compound of interest on the receiver side, SA is the surface area of the cell membrane, VD is the donor volume, and MD is the initial amount of the solution in the donor chamber.
The symbol “+” indicates a Caco-2 value of ≤0.5, “++” indicates a Caco-2 value of >0.5 but ≤1; and “+++” indicates a Caco-2 value of >1. “NA” indicates Caco-2 value not available.

Sequence of KRAS G12D (P01116 1-188 isoform P01116-2 G12D): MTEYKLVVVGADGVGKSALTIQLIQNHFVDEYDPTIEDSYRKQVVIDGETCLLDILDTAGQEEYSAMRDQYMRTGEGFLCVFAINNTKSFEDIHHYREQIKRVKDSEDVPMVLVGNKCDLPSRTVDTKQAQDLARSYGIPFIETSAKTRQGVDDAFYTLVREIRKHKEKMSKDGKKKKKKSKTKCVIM
Sequence of KRAS G12V (P01116 1-188 isoform P01116-2 G12V): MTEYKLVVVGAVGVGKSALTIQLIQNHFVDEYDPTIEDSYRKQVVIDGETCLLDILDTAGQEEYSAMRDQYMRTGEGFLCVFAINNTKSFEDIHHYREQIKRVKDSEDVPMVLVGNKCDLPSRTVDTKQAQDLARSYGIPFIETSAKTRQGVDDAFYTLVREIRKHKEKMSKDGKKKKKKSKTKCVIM

With `Cc1nc2c(F)c(-c3cccc(Cl)c3Cl)c(CCC#N)cc2c2c1cc([C@H]1[C@H]3C[C@H](CN(c4ccc(OC(F)(F)F)cc4)C3)N1C(=O)C1CC1)n2[C@H]1[C@H]2CN[C@@H]1C2` (atropisomer, axis not shown; (Ra)) [Example 3, 3-((Ra)-1-((1R,4R,5S)-2-azabicyclo[2.1.1]hexan-5-yl)-2-((1S,5R,7R)-6-(cyclopropanecarbonyl)-3-(4-(trifluoromethoxy)phenyl)-3,6-diazabicyclo[3.2.1]octan-7-yl)-7-(2,3-dichlorophenyl)-6-fluoro-4-methyl-1H-pyrrolo[3,2-c]quinolin-8-yl)propanenitrile], the “G12V_exchange (KRAS_G12V exchange assay IC50)” value (“G12V_exchange” for short) at KRAS G12V is reported as “†”. The “G12D_exchange (KRAS_G12D exchange assay IC50)” value (from here on “G12D_exchange”) on KRAS G12D is “††”. For the same compound, in series [1], the Papp A→B at 120 min, 50 μM is not above 5 nm/s.
Taken in the same sequence, the figures for `Cc1nc2c(F)c(-c3cccc(Cl)c3Cl)c(CCC#N)cc2c2c1cc([C@H]1[C@H]3C[C@H](CN(c4ccc(C#N)cc4)C3)N1C(=O)C1CC1)n2[C@H]1[C@H]2CN[C@@H]1C2` (atropisomer, axis not shown; (Ra)) [Example 4, 4-((1S,5R,7R)-7-((Ra)-1-((1R,4R,5S)-2-azabicyclo[2.1.1]hexan-5-yl)-8-(2-cyanoethyl)-7-(2,3-dichlorophenyl)-6-fluoro-4-methyl-1H-pyrrolo[3,2-c]quinolin-2-yl)-6-(cyclopropanecarbonyl)-3,6-diazabicyclo[3.2.1]octan-3-yl)benzonitrile] were “†”, “†” and not above 5 nm/s.
With `Cc1nc2c(F)c(-c3cccc(Cl)c3Cl)c(CCC#N)cc2c2c1cc([C@H]1[C@H]3C[C@H](CN(c4ccc(C(F)(F)F)nc4)C3)N1C(=O)C1CC1)n2[C@H]1[C@H]2CN[C@@H]1C2` (atropisomer, axis not shown; (Ra)) [Example 5, 3-((Ra)-1-((1R,4R,5S)-2-azabicyclo[2.1.1]hexan-5-yl)-2-((1S,5R,7R)-6-(cyclopropanecarbonyl)-3-(6-(trifluoromethyl)pyridin-3-yl)-3,6-diazabicyclo[3.2.1]octan-7-yl)-7-(2,3-dichlorophenyl)-6-fluoro-4-methyl-1H-pyrrolo[3,2-c]quinolin-8-yl)propanenitrile], the “G12V_exchange” value at KRAS G12V was “†”. Moreover, at KRAS G12D, the “G12D_exchange” value is given as “†”. For the same compound, in series [1], the Papp A→B at 120 min, 50 μM was not above 5 nm/s.
As for `Cc1nc2c(F)c(-c3cccc(Cl)c3Cl)c(CCC#N)cc2c2c1cc([C@H]1[C@H]3C[C@H](CN(c4ccc5c(c4)OC(F)(F)O5)C3)N1C(=O)C1CC1)n2[C@H]1[C@H]2CN[C@@H]1C2` (atropisomer, axis not shown; (Ra)) [Example 7, 3-((Ra)-1-((1R,4R,5S)-2-azabicyclo[2.1.1]hexan-5-yl)-2-((1S,5R,7R)-6-(cyclopropanecarbonyl)-3-(2,2-difluorobenzo[d][1,3]dioxol-5-yl)-3,6-diazabicyclo[3.2.1]octan-7-yl)-7-(2,3-dichlorophenyl)-6-fluoro-4-methyl-1H-pyrrolo[3,2-c]quinolin-8-yl)propanenitrile], the “G12V_exchange” value at KRAS G12V is given as “†”. In addition, at KRAS G12D, the “G12D_exchange” value is on record as “†”. For the same compound, the Papp A→B at 120 min, 50 μM in series [1] was not above 5 nm/s.
As to `Cc1nc2c(F)c(-c3cccc(Cl)c3Cl)c(CCC#N)cc2c2c1cc([C@H]1[C@H]3C[C@H](CN(c4cnn(C(F)F)c4)C3)N1C(=O)C1CC1)n2[C@H]1[C@H]2CN[C@@H]1C2` (atropisomer, axis not shown; (Ra)) [Example 8, 3-((Ra)-1-((1R,4R,5S)-2-azabicyclo[2.1.1]hexan-5-yl)-2-((1S,5R,7R)-6-(cyclopropanecarbonyl)-3-(1-(difluoromethyl)-1H-pyrazol-4-yl)-3,6-diazabicyclo[3.2.1]octan-7-yl)-7-(2,3-dichlorophenyl)-6-fluoro-4-methyl-1H-pyrrolo[3,2-c]quinolin-8-yl)propanenitrile], the “G12V_exchange” value at KRAS G12V is given as “†”. Besides, the “G12D_exchange” value at KRAS G12D is given as “†”. In addition, the Papp A→B at 120 min, 50 μM in series [1] is not above 5 nm/s.
For the compound `Cc1nc2c(F)c(-c3cccc(Cl)c3Cl)c(CCC#N)cc2c2c1cc([C@H]1[C@H]3C[C@H](CN(c4cccnc4)C3)N1C(=O)C1CC1)n2[C@H]1[C@H]2CN[C@@H]1C2` (atropisomer, axis not shown; (Ra)) [Example 9, 3-((Ra)-1-((1R,4R,5S)-2-azabicyclo[2.1.1]hexan-5-yl)-2-((1S,5R,7R)-6-(cyclopropanecarbonyl)-3-(pyridin-3-yl)-3,6-diazabicyclo[3.2.1]octan-7-yl)-7-(2,3-dichlorophenyl)-6-fluoro-4-methyl-1H-pyrrolo[3,2-c]quinolin-8-yl)propanenitrile], the “G12V_exchange” value on KRAS G12V is recorded as “†”. Moreover, the “G12D_exchange” value at KRAS G12D was “†”. Further, in series [1], the Papp A→B at 120 min, 50 μM was not above 5 nm/s.
Consider `Cc1nc2c(F)c(-c3cccc(Cl)c3Cl)c(CCC#N)cc2c2c1cc([C@H]1[C@H]3C[C@H](CN(c4cccc(C(F)(F)F)c4)C3)N1C(=O)C1CC1)n2[C@H]1[C@H]2CN[C@@H]1C2` (atropisomer, axis not shown; (Ra)) [Example 10, 3-((Ra)-1-((1R,4R,5S)-2-azabicyclo[2.1.1]hexan-5-yl)-2-((1S,5R,7R)-6-(cyclopropanecarbonyl)-3-(3-(trifluoromethyl)phenyl)-3,6-diazabicyclo[3.2.1]octan-7-yl)-7-(2,3-dichlorophenyl)-6-fluoro-4-methyl-1H-pyrrolo[3,2-c]quinolin-8-yl)propanenitrile], for which the “G12V_exchange” value at KRAS G12V is recorded as “†”. The “G12D_exchange” value at KRAS G12D was “††”. In series [1], the Papp A→B at 120 min, 50 μM is not above 5 nm/s.
With `Cc1nc2c(F)c(-c3cccc(Cl)c3Cl)c(CCC#N)cc2c2c1cc([C@H]1[C@H]3C[C@H](CN(c4ccc(C(F)(F)F)cc4)C3)N1C(=O)C1CC1)n2[C@H]1[C@H]2CN[C@@H]1C2` (atropisomer, axis not shown; (Ra)) [Example 12, 3-((Ra)-1-((1R,4R,5S)-2-azabicyclo[2.1.1]hexan-5-yl)-2-((1S,5R,7R)-6-(cyclopropanecarbonyl)-3-(4-(trifluoromethyl)phenyl)-3,6-diazabicyclo[3.2.1]octan-7-yl)-7-(2,3-dichlorophenyl)-6-fluoro-4-methyl-1H-pyrrolo[3,2-c]quinolin-8-yl)propanenitrile], on KRAS G12V, the “G12V_exchange” value is reported as “†”. Moreover, on KRAS G12D, the “G12D_exchange” value is “††”. This compound also returned a Papp A→B at 120 min, 50 μM in series [1] not above 5 nm/s.
Taken in the same sequence, the figures for `Cc1nc2c(F)c(-c3cccc(Cl)c3Cl)c(CCC#N)cc2c2c1cc([C@H]1[C@H]3C[C@H](CN(c4cccc(F)c4)C3)N1C(=O)C1CC1)n2[C@H]1[C@H]2CN[C@@H]1C2` (atropisomer, axis not shown; (Ra)) [Example 13, 3-((Ra)-1-((1R,4R,5S)-2-azabicyclo[2.1.1]hexan-5-yl)-2-((1S,5R,7R)-6-(cyclopropanecarbonyl)-3-(3-fluorophenyl)-3,6-diazabicyclo[3.2.1]octan-7-yl)-7-(2,3-dichlorophenyl)-6-fluoro-4-methyl-1H-pyrrolo[3,2-c]quinolin-8-yl)propanenitrile] were “†”, “†” and not above 5 nm/s.
Taken in the same sequence, the figures for `Cc1ccc(N2C[C@@H]3C[C@H](C2)N(C(=O)C2CC2)[C@H]3c2cc3c(C)nc4c(F)c(-c5cccc(Cl)c5Cl)c(CCC#N)cc4c3n2[C@H]2[C@H]3CN[C@@H]2C3)cn1` (atropisomer, axis not shown; (Ra)) [Example 14, 3-((Ra)-1-((1R,4R,5S)-2-azabicyclo[2.1.1]hexan-5-yl)-2-((1S,5R,7R)-6-(cyclopropanecarbonyl)-3-(6-methylpyridin-3-yl)-3,6-diazabicyclo[3.2.1]octan-7-yl)-7-(2,3-dichlorophenyl)-6-fluoro-4-methyl-1H-pyrrolo[3,2-c]quinolin-8-yl)propanenitrile] were “†”, “†” and not above 5 nm/s.
